Results reported in patent EP3431468B1, “USE OF ADIPONECTIN RECEPTOR AGONISTS IN TREATING DEPRESSION, ANXIETY AND NEUROINFLAMMATION” (CENTRE NATIONAL DE LA RECHERCHE SCIENTIFIQUE, priority 2017, dated 2019).

Key:
[1] = tested on: serotonin pathway; assay: 5-HT and 5-HIAA levels in dorsal raphe nucleus; assay type: in vivo; settings: corticosterone-exposed mice, chronic AdipoRon
[2] = tested on: hippocampal neurogenesis; assay: Hippocampal neurogenesis (BrdU-positive cells in dentate gyrus); assay type: in vivo, mice; settings: chronic AdipoRon
[3] = tested on: AMPK; assay: AMPK phosphorylation in hypothalamus by western blot; assay type: in vivo, mice; settings: 1mg/kg
[4] = tested on: corticosterone-treated mice; assay: Learned Helplessness (LH), chronic administration; assay type: in vivo; settings: chronic 1mg/kg ip daily
Description: Three well-established mouse models of depression-like behavior have been used in the present study namely i- the long-term corticosterone treatment in the drinking water (David, Samuels et al. 2009), ii- the peripheral administration of LPS (O'Connor, Lawson et al. 2009) iii- the ApN^-/- mice (Liu, Guo et al. 2012). For chronic AdipoRon treatment, the experimental protocol was as followed: • i- Five weeks old male mice (five/cage) received corticosterone (35mg/L dissolved in tap water containing 4 g/L CD) or vehicle alone ad libitum for during 7 consecutive weeks (David, Samuels et al. 2009). Corticosterone and vehicle solutions were changed every 3 days to prevent possible degradation. […]
All behavioral testing were conducted during the light phase (between 09:00 and 14:00 am) in compliance with the Institutional Animal Care and Use Committee of the University of Nice-Sophia Antipolis (permission number 010344.01 from the French "Ministère de l'Enseignement Supérieur et de la Recherche" granted to Dr. Joëlle Chabry). • Forced Swimming test (FST) - Mice were placed an inescapable transparent tank (20cm diameter, 30cm deep) filled with water (23°C ± 0.5) for six minutes as previously described by Porsolt et al. (1977). […] To initiate testing, mice were placed into the light side and activity was recorded for 5 minutes. […]

[5] = Kinetic of AdipoRon in plasma and brain areas by HPLC coupled to MS/MS; assay type: in vivo; settings: for time of highest level of AdipoRon post ip injection: 1mg/kg ip; for level of AdipoRon: 3-hours post ip injection, 1mg/kg
[6] = tested on: presumed serotoninergic neurons; assay: Whole-cell patch-clamp recordings on brain slices, voltage clamp; assay type: cell-based, mouse

O=C(COc1ccc(C(=O)c2ccccc2)cc1)NC1CCN(Cc2ccccc2)CC1 [AdipoRon, 2-(4-Benzoylphenoxy)-N-[1-(phenylmethyl)-4-piperidinyl]-acetamide]
5-HT level [1]: without modifying the 5-HT level | level of 5-HIAA [1]: increased the level of 5-HIAA | ratio 5-HIAA/5-HT [1]: threefold increase | hippocampal neurogenesis rate (BrdU-positive nuclei in dentate gyrus) ([2]; control conditions (no corticosterone)): without modifying neurogenesis | hippocampal neurogenesis rate (BrdU-positive nuclei in dentate gyrus) ([2]; long-term corticosterone-treated mice, 21-days post-BrdU injections): reversed the deleterious effect of corticosterone | level of phospho-AMPK ([3]; 1-hour post ip injection): increased the level of phospho-AMPK | level of phospho-AMPK ([3]; 30 min post ip injection): increased the level of phospho-AMPK | level of phospho-AMPK ([3]; 3 hours post ip injection): no longer observable | resignation-like behavior in the LH test (latency, failures to escape) ([4]; corticosterone-treated mice): reversed the effect of corticosterone | resignation-like behavior in the LH test (latency, failures to escape) ([4]; vehicle-treated mice (no corticosterone)): no significant effect | time of highest level of AdipoRon post ip injection ([5]; hippocampus): thirty | level of AdipoRon ([5]; hippocampus): barely detectable | time of highest level of AdipoRon post ip injection ([5]; hypothalamus): thirty | level of AdipoRon ([5]; hypothalamus): barely detectable | blood-brain barrier (BBB) crossing ([5]; ip injection, mice): crosses the BBB | time of highest level of AdipoRon post ip injection ([5]; plasma): thirty | level of AdipoRon ([5]; plasma): barely detectable | effect of AdipoRon on current and membrane conductance ([6]; CsCl internal solution instead of KCl solution): blocked | membrane conductance ([6]; holding potential of -60 mV, KCl internal solution, 10 µM AdipoRon): decrease in membrane conductance | induced current ([6]; holding potential of -60 mV, KCl internal solution, n=9/9 presumed serotoninergic neurons, N=5 mice, 10 µM AdipoRon): small inward current
